Measurements: patent publication US11214803B2, “Modulators of YAP1 expression” (Ionis Pharmaceuticals, Inc., priority 2019, dated 2022)
Strand notation (5' to 3'): a small letter for the sugar, then the base; units joined by * are phosphorothioate-linked, units joined directly phosphodiester-linked; [ ] holds rarer units or linkages, { } end groups; capitals alone tell only the bases. k = constrained ethyl (cEt); [5mC] = 5-methylcytosine; d = 2'-deoxy (DNA)

System: Yap1 mRNA
Experiment: Dose-dependent inhibition of human Yap1 in A-431 cells (Example 8, 10,000 cells per well, RTS4814)
Format: cell-based
Conditions: free uptake, approximately 48 hours, RTS4814; for Yap1 mRNA, % UTC: A-431 cells, 10,000 cells per well; for IC50: A-431 cells, linear regression on log/linear plot
Method in brief: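 Yap1 mRNA, normalized to RIBOGREEN total RNA and expressed as % untreated control, was read with RTS4814 about 48 h after free-uptake oligonucleotide treatment of A-431 cells at 10,000 cells/well. IC50 derived by linear regression of log/linear data.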

Substance	Yap1 mRNA, % UTC (31.3 nM) [% UTC]	Yap1 mRNA, % UTC (125.0 nM) [% UTC]	Yap1 mRNA, % UTC (500.0 nM) [% UTC]	Yap1 mRNA, % UTC (2000.00 nM) [% UTC]	IC50 [nM]
1076294 (kT*kA*kT*dA*dT*dT*dA*dG*dT*dG*d[5mC]*d[5mC]*d[5mC]*k[5mC]*k[5mC]*kT; antisense) [compound 1076294]	76	50	21	11	100
1076299 (k[5mC]*kG*kT*dT*dA*dT*dA*dA*dA*dG*dA*d[5mC]*d[5mC]*k[5mC]*kA*kA; antisense) [compound 1076299]	68	38	13	5	100
1075842 (kG*kT*kA*dT*dT*dT*dA*dG*dG*dT*dA*d[5mC]*dT*k[5mC]*kA*kG; antisense) [compound 1075842]	27	7	3	3	< 20
1076427 (k[5mC]*kA*kA*dA*dT*dT*dT*dA*d[5mC]*dT*dG*dA*dT*k[5mC]*kT*k[5mC]; antisense) [compound 1076427]	75	30	9	4	100
1076393 (antisense k[5mC]*kT*kT*dT*dA*d[5mC]*dT*dT*dA*d[5mC]*dT*dG*dG*kT*kG*kG) [compound 1076393]	54	20	8	5	< 20
1076416 (kA*k[5mC]*k[5mC]*dG*dA*dA*dA*dT*dG*dA*dT*dA*d[5mC]*kT*kG*kA; antisense) [compound 1076416]	67	33	13	7	100
1074794 (k[5mC]*kA*kA*dA*dT*d[5mC]*dA*dA*dT*dG*dT*dG*d[5mC]*kT*k[5mC]*k[5mC]; antisense) [compound 1074794]	56	23	10	6	< 20
1075457 (antisense kA*kG*kT*dA*dA*dT*dA*dT*dG*dT*dA*d[5mC]*dA*kT*kG*kG) [compound 1075457]	52	21	8	6	< 20
1075458 (antisense k[5mC]*k[5mC]*kA*d[5mC]*dA*dA*dT*dA*dT*dA*d[5mC]*dT*d[5mC]*k[5mC]*kA*kA) [compound 1075458]	74	43	17	6	100
1074597 (DNA kA*kG*kT*dA*dT*dT*d[5mC]*dT*dA*dT*d[5mC]*d[5mC]*dA*kG*kG*kG; antisense) [compound 1074597]	35	15	8	7	< 20
1076260 (k[5mC]*kT*kT*dA*dA*dT*dT*dT*dA*dA*d[5mC]*dT*d[5mC]*k[5mC]*kT*kG; antisense) [compound 1076260]	61	30	12	5	50
1076426 (kA*k[5mC]*kG*dG*dG*dA*dA*dA*dA*dT*dT*d[5mC]*dT*kG*kG*kA; antisense) [compound 1076426]	68	46	24	18	100
1076000 (k[5mC]*k[5mC]*kT*dA*dA*dT*dA*dT*dG*dA*d[5mC]*dT*d[5mC]*k[5mC]*kT*kT; antisense) [compound 1076000]	71	31	10	5	100
1075401 (antisense k[5mC]*kG*kA*dT*dT*dA*dA*dA*dA*d[5mC]*dA*d[5mC]*dT*kG*kG*kT) [compound 1075401]	62	26	11	7	40
1075041 (antisense kG*kA*kT*dT*dA*dT*dA*dA*dA*dG*dA*dG*dG*k[5mC]*kT*k[5mC]) [compound 1075041]	62	31	11	7	50
1075498 (k[5mC]*kA*kT*dT*dA*dT*dA*dT*dA*dA*dT*dG*d[5mC]*kA*kG*kG; antisense) [compound 1075498]	82	40	21	16	100
1075689 (k[5mC]*kA*kA*d[5mC]*dT*dA*dT*dA*d[5mC]*dA*dA*dG*dG*k[5mC]*kA*kA; antisense) [compound 1075689]	97	59	19	8	200
1076003 (kA*kA*kT*dT*dT*dA*dA*dT*dG*dG*d[5mC]*dT*dT*kG*k[5mC]*kA; antisense) [compound 1076003]	60	28	17	11	40
1075939 (antisense k[5mC]*kT*kT*dG*dA*dA*dT*dA*dT*dA*dT*dG*dG*kG*kT*kT) [compound 1075939]	46	19	10	8	< 20
1074250 (antisense k[5mC]*kT*kG*dA*dT*d[5mC]*dG*dA*dT*dG*dT*dG*dA*kT*kT*kT) [compound 1074250]	67	35	15	9	100
1076004 (kT*kA*kA*dT*dT*dT*dA*dA*dT*dG*dG*d[5mC]*dT*kT*kG*k[5mC]; antisense) [compound 1076004]	27	7	3	2	< 20
1076490 (k[5mC]*k[5mC]*kA*dA*dA*dA*dT*dA*dG*dG*dT*dG*dA*kG*kT*k[5mC]; antisense) [compound 1076490]	36	9	4	3	< 20
1076295 (kG*kT*kA*dT*dA*dT*dT*dA*dG*dT*dG*d[5mC]*d[5mC]*k[5mC]*k[5mC]*k[5mC]; antisense) [compound 1076295]	55	17	5	3	< 20
1074626 (DNA k[5mC]*kT*kG*dT*dT*dA*dT*dG*dA*dA*d[5mC]*d[5mC]*d[5mC]*kT*kT*kG) [compound 1074626]	54	18	8	5	< 20
1074595 (DNA kT*kA*kG*dA*dA*dG*dT*dA*dG*dG*dA*dG*d[5mC]*kA*kA*kG; antisense) [compound 1074595]	67	21	8	4	40
